As usually defined, the IC50 is the midpoint of a concentration-inhibition curve.

In the test the test system is P388. The experiment in a line: Cytotoxicity against mouse P388 cells. In kind it is functional, cell-based.

Regarding `CC(=O)O[C@@H]1CC[C@@]2(C)[C@@H](CC[C@]3(C)/C(=C(\C)C(=O)/C=C/C(C)=C/C=C/C(C)(C)O)C(=O)C[C@@H]23)[C@@]1(C)C(=O)[O-].[Na+]` [GLOBOSTELLATIC ACID A], it took 0.1 µg/mL to reach half-maximal inhibition (IC50). Then `COC(/C=C/C(C)(C)O)/C(C)=C/C=C/C(C)=C1\C(=O)C[C@H]2[C@@]3(C)CC[C@@H](OC(C)=O)[C@](C)(C(=O)[O-])[C@@H]3CC[C@]12C.[Na+]` (some centres undefined) [GLOBOSTELLATIC ACID B], with 0.1 µg/mL; and `COC(/C=C/C(C)=C/C=C/C(C)=C1\C(=O)C[C@H]2[C@@]3(C)CC[C@@H](OC(C)=O)[C@](C)(C(=O)[O-])[C@@H]3CC[C@]12C)C(C)(C)O.[Na+]` (some centres undefined) [GLOBOSTELLATIC ACID C], with 0.46 µg/mL; and `COC(/C=C/C(C)=C/C=C/C(C)=C1\C(=O)C[C@H]2[C@@]3(C)CC[C@@H](O)[C@](C)(C(=O)[O-])[C@@H]3CC[C@]12C)C(C)(C)O.[Na+]` (some centres undefined) [GLOBOSTELLATIC ACID D], with 0.1 µg/mL.

For the origin of these results see ChEMBL document CHEMBL1158216, “Globostellatic acids A-D, new cytotoxic isomalabaricane triterpenes from the marine sponge Stelletta globostellata” (J Nat Prod, 1996).
